From US20240083890A1, “MACROCYCLIC BRANCHED 3-FLUORO-BUT-3-ENAMIDES AS INHIBITORS OF MCL-1” (JANSSEN PHARMACEUTICA NV, priority 2020, published 2024)

Assays:
[1] = target: Mcl-1 (Homo sapiens (Human), UniProt Q07820); test: Terbium labeled Mcl-1 HTRF binding assay, displacement of Cy5-labeled BIM BH3 peptide; settings: Ki=IC50/(1+[L]/Kd), [L]=8 nM, Kd=10 nM; 25 pM Tb-Mcl-1, 8 nM Cy5 Bim peptide, 60 min; read-out: Tb-MCL1 Ki
Experimental: Terbium labeled Myeloid Cell Leukemia 1(Mcl-1) homogeneous time-resolved fluorescence (HTRF) binding assay utilizing the BIM BH3 peptide (H2N—(C/Cy5Mal) WIAQELRRIGDEFN-OH) as the binding partner for Mcl-1.
This assay evaluated inhibition of the BH3 domain: Mcl-1 interaction by measuring the displacement of Cy5-labeled BIM BH3 peptide (H2N—(C/Cy5Mal) WIAQELRRIGDEFN-OH) in the HTRF assay format.
The following assay and stock buffers were prepared for use in the assay: (a) Stock buffer: 10 mM Tris-HCl, pH=7.5+150 mM NaCl, filtered, sterilized, and stored at 4° C.; and (b) 1× assay buffer, where the following ingredients were added fresh to stock buffer: 2 mM dithiothreitol (DTT), 0.0025% Tween-20, 0.1 mg/mL bovine serum albumin (BSA). The 1× Tb-Mcl-1+Cy5 Bim peptide solution was prepared by diluting the protein stock solution using the 1× assay buffer (b) to 25 pM Tb-Mcl-1 and 8 nM Cy5 Bim peptide.
Using the Acoustic ECHO, 100 nL of 100× test compound(s) were dispensed into individual wells of a white 384-well Perkin Elmer Proxiplate, for a final compound concentration of 1× and final DMSO concentration of 1%. Inhibitor control and neutral control (NC, 100 nL of 100% DMSO) were stamped into columns 23 and 24 of assay plate. Into each well of the plate was then dispensed 10 μL of the 1× Tb-Mcl-1+Cy5 Bim peptide solution. The plate was centrifuged with a cover plate at 1000 rpm for 1 minute, then incubated for 60 minutes at room temperature with plates covered.
The TR-FRET signal was read on an BMG PHERAStar FSX MicroPlate Reader at room temperature using the HTRF optic module (HTRF: excitation: 337 nm, light source: laser, emission A: 665 nm, emission B: 620 nm, integration start: 60 μs, integration time: […]).
The BMG PHERAStar FSX MicroPlate Reader was used to measure fluorescence intensity at two emission wavelengths—665 nm and 620 nm—and report relative fluorescence units (RFU) for both emissions, as well as a ratio of the emissions (665 nm/620 nm)*10,000. The RFU values were normalized to percent inhibition as follows:
% inhibition (((NC−IC)−(compound-IC))/(NC−IC))*100
where IC (inhibitor control, low signal)=mean signal of 1× Tb-MCl-1+Cy5 Bim peptide+inhibitor control or 100% inhibition of Mel-1; NC (neutral control, high signal)=mean signal 1× Tb-MCI-1+Cy5 Bim peptide with DMSO only or 0% inhibition
An 11-point dose response curve was generated to determine IC50 values (using GenData) based on the following equation:
Y=Bottom+(Top-Bottom)/(1+10^((log IC50−X)*HillSlope))
where Y=% inhibition in the presence of X inhibitor concentration; Top=100% inhibition derived from the IC (mean signal of Mcl-1+inhibitor control); Bottom=0% inhibition derived from the NC (mean signal of Mcl-1+DMSO); Hillslope=Hill coefficient; and IC50=concentration of compound with 50% inhibition in relation to top/neutral control (NC).
In this assay [L]=8 nM and Kd=10 nM
Representative compounds of the present invention were tested according to the procedure as described above, with results as listed in the Table below (n.d. means not determined).

[2] = test system: MOLP-8 human multiple myeloma cell line; test: Caspase-Glo 3/7 apoptosis induction assay in MOLP-8 cells; type: cell-based; settings: Homo sapiens, MOLP-8; caspase-3/7 activation, 2 hours incubation at 37° C.; averaged over all runs on all batches; read-out: MOLP8 AC50
Source text: MCL-1 is a regulator of apoptosis and is highly over-expressed in tumor cells that escape cell death. The assay evaluates the cellular potency of small-molecule compounds targeting regulators of the apoptosis pathway, primarily MCL-1, Bfl-1, Bcl-2, and other proteins of the Bcl-2 family. Protein-protein inhibitors disrupting the interaction of anti-apoptotic regulators with BH3-domain proteins initiate apoptosis.
The Caspase-Glo® 3/7 Assay is a luminescent assay that measures caspase-3 and -7 activities in purified enzyme preparations or cultures of adherent or suspension cells. The assay provides a proluminescent caspase-3/7 substrate, which contains the tetrapeptide sequence DEVD. This substrate is cleaved to release aminoluciferin, a substrate of luciferase used in the production of light. Addition of the single Caspase-Glo® 3/7 Reagent in an “add-mix-measure” format results in cell lysis, followed by caspase cleavage of the substrate and generation of a “glow-type” luminescent signal.
This assay uses the MOLP-8 human multiple myeloma cell line, which is sensitive to MCL-1 inhibition.
Cell cultures were maintained between 0.2 and 2.0×10^6 cells/mL. The cells were harvested by collection in 50 mL conical tubes. The cells were then pelleted at 500 g for 5 mins before removing supernatant and resuspension in fresh pre-warmed culture medium. The cells were counted and diluted as needed.
The assay reagent was prepared by transferring the buffer solution to the substrate vial and mixing. The solution may be stored for up to 1 week at 4° C. with negligible loss of signal.
Compounds were delivered in assay-ready plates (Proxiplate) and stored at −20° C.
Assays always include 1 reference compound plate containing reference compounds. The plates were spotted with 40 nL of compounds (0.5% DMSO final in cells; serial dilution; 30 μM highest conc. 1/3 dilution, 10 doses, duplicates). The compounds were used at room temperature and 4 μL of pre-warmed media was added to all wells except column 2 and 23. The negative control was prepared by adding 1% DMSO in media. The positive control was prepared by adding the appropriate positive control compound in final concentration of 60 μM in media. The plate was prepared by adding 4 μL negative control to column 23, 4 μL positive control to column 2, and 4 μL cell suspension to all wells in the plate. The plate with cells was then incubated at 37° C. for 2 hours. The assay signal reagent is the Caspase-Glo solution described above, and 8 μL was added to all wells. The plates were then sealed and measured after 30 minutes.
The activity of a test compound was calculated as percent change in apoptosis induction as follows: • LC=median of the Low Control values • =Central Reference in Screener • =DMSO • =0% • HC=Median of the High Control values • =Scale Reference in Screener • =30 μM of positive control • =100% apoptosis induction
% Effect (AC50)=100−((sample-LC)/(HC-LC))*100
% Control=(sample/HC)*100
% Control min=((sample-LC)/(HC-LC))*100
Table: Measured AC50 for Representative Compounds of Formula (I). Averaged values are reported over all runs on all batches of a particular compound.

Mcl-1, sequence (Q07820 whole entry): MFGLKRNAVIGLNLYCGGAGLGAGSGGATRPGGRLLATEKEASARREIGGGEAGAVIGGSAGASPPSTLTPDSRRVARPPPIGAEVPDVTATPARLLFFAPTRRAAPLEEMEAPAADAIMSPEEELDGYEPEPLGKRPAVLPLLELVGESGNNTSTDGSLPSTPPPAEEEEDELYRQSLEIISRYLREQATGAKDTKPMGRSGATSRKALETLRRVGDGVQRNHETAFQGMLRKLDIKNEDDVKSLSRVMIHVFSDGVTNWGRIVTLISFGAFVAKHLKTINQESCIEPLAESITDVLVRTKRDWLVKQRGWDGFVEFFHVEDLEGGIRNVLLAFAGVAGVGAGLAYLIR

SMILES	Ki [1] [nM]	AC50 [2] [nM]
COCC(COC)OC[C@H](O)[C@H]1/C(F)=C/C[C@H](C)[C@@H](C)S(=O)(=O)NC(=O)c2ccc3c(c2)N(C[C@@H]2CCN21)C[C@@]1(CCCc2cc(Cl)ccc21)CO3 [Compound 24]	0.036	46.3
COCCN(CC1CCOCC1)C[C@H](O)[C@H]1/C(F)=C/C[C@H](C)[C@@H](C)S(=O)(=O)NC(=O)c2ccc3c(c2)N(C[C@@H]2CCN21)C[C@@]1(CCCc2cc(Cl)ccc21)CO3 [Compound 25]	0.025	36.6
COCCCN(CCOC)C[C@H](O)[C@H]1/C(F)=C/C[C@H](C)[C@@H](C)S(=O)(=O)NC(=O)c2ccc3c(c2)N(C[C@@H]2CCN21)C[C@@]1(CCCc2cc(Cl)ccc21)CO3 [Compound 26]	0.044	123
C[C@@H]1[C@@H](C)C/C=C(\F)[C@H]([C@@H](O)CN(C)CCC2CCOCC2)N2CC[C@H]2CN2C[C@@]3(CCCc4cc(Cl)ccc43)COc3ccc(cc32)C(=O)NS1(=O)=O [Compound 27]	0.053	746
C[C@@H]1[C@@H](C)C/C=C(\F)[C@H]([C@@H](O)CN(C)CC2CCOCC2)N2CC[C@H]2CN2C[C@@]3(CCCc4cc(Cl)ccc43)COc3ccc(cc32)C(=O)NS1(=O)=O [Compound 28]	0.037	211
COCCN(C)C[C@H](O)[C@H]1/C(F)=C/C[C@H](C)[C@@H](C)S(=O)(=O)NC(=O)c2ccc3c(c2)N(C[C@@H]2CCN21)C[C@@]1(CCCc2cc(Cl)ccc21)CO3 [Compound 29]	0.044	385
COCCOCCN(C)C[C@H](O)[C@H]1/C(F)=C/C[C@H](C)[C@@H](C)S(=O)(=O)NC(=O)c2ccc3c(c2)N(C[C@@H]2CCN21)C[C@@]1(CCCc2cc(Cl)ccc21)CO3 [Compound 30]	0.036	944
C[C@@H]1[C@@H](C)C/C=C(\F)[C@H]([C@@H](O)CN(C)C)N2CC[C@H]2CN2C[C@@]3(CCCc4cc(Cl)ccc43)COc3ccc(cc32)C(=O)NS1(=O)=O [Compound 31]	0.041	1020
CO[C@H](C)[C@H]1/C(F)=C/C[C@H](C)[C@@H](C)S(=O)(=O)NC(=O)c2ccc3c(c2)N(C[C@@H]2CCCN21)C[C@@]1(CCOc2cc(Cl)ccc21)CO3 [Compound 32]	1.93	3710
